According to ChEMBL document CHEMBL1201862, “PubChem BioAssay data set” (2004):
The source made the active and inactive calls.

What was measured:
[1] = molecular target: Type-1 angiotensin II receptor (Homo sapiens, UniProt P30556); assay: antagonism of angiotensin II type 1 receptor – cell-based, uHTS hits, selectivity assay for APJ receptor antagonist project, dose response (AID 463214); format: functional;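 also: antagonist potency against angiotensin II stimulated AT1 response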
Paired box protein Pax-8 = Paired box protein Pax-8 (Homo sapiens, UniProt Q06710); assay: PAX8 transcriptional activity inhibition in RMG-I – RMG-I cells, luciferase, cherry-pick, dose response (AID 687027); format: functional, cell-based;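 also: luciferase reporter driven by Pax8 target thyroperoxidase promoter measured by SteadyGlo luminescence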
HEK293 [2] = assay: cells; format: functional, cell-based; conditions: Homo sapiens
[3] = OVCAR4 cell viability loss – plate reader, dry powder, SA11, cytotoxicity control for PAX8 inhibitor project, dose response (AID 743150); format: functional, cell-based; conditions: OVCAR-4
[4] = molecular target: Nucleotide-binding oligomerization domain-containing protein 2 (Homo sapiens, UniProt Q9HC29); assay: inhibition of NOD2-driven NF-kB reporter – cell-based, luminescence, uHTS, HEK293 (AID 1566); format: functional
[5] = PAX8-dependent cell viability loss – plate reader, dry powder, dose response (AID 743049); format: functional, cell-based
BJ [6] = assay: BJ-TERT fibroblast viability loss – cell-based, RAS-independent, luminescence, dose response (AID 1933); format: functional; conditions: Homo sapiens
[7] = COV434 cell viability loss – plate reader, dry powder, SA7, cytotoxicity control for PAX8 inhibitor project, dose response (AID 743145); format: functional, cell-based
[8] = OVCAR-3 cell viability loss – plate reader, dry powder samples, PAX8 inhibitor project, dose response (AID 743044); format: functional, cell-based
[9] = test system: Streptococcus sp. 'group A'; assay: Streptococcus pyogenes SK(-)GAS viability under kanamycin – luminescence, BacTiterGlo, confirmation, counter-screen for streptokinase expression inhibitor project, dose response (AID 1900); format: functional, organism-based
[10] = DRD fibroblast viability loss – cell-based, non-viral oncogenic, luminescence, dose response (AID 1934); format: functional; conditions: Homo sapiens
[11] = inhibitors acting on PAX2 in cells – cell-based, plate reader, dry powder samples, selectivity assay for PAX8 inhibitor project, dose response (AID 743048); format: functional;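 also: HEK293 cells carrying a WT1 promoter luciferase reporter driven by expressed Pax2; potency is for inhibition of Pax2 driven reporter signal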
Jurkat = assay: SAR Analysis of small molecule inhibitors of both B-cell and T-cell specific antigen receptor-induced NF-kB activation in a Jurkat cell line using a luminescence assay. [Related pubchem assays (depositor defined):AID435003, AID435022, AID465, AID489029]; format: functional, cell-based; conditions: Homo sapiens
[12] = IGROV1 cell killing – plate reader, dry powder samples, PAX8 inhibitor project, dose response (AID 743043); format: functional, cell-based; conditions: IGROV-1
BJ [13] = assay: growth inhibition of engineered Ras-driven BJ cells – cell-based, alamar blue fluorescence, cherrypicked samples, dose response (AID 2631); format: functional; conditions: Homo sapiens;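 also: confirmatory dose-response assay in RAS-dependent BJ fibroblasts engineered with TERT, LT and ST, with cytotoxicity read by fluorescence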
[14] = PAX5 cellular inhibition readout – cell-based, plate reader, dry powder samples, selectivity assay for PAX8 inhibitor project, dose response (AID 743047); format: functional;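 also: HEK293 cells carrying a Pax5 driven CD19 promoter luciferase reporter; potency of inhibitors that lower reporter luminescence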
HEK293 [15] = assay: cells; format: functional, cell-based; conditions: Homo sapiens; remark: listed apart in the source
HEK293 [16] = assay: SAR Analysis of small molecule inhibitors of both B-cell and T-cell specific antigen receptor-induced NF-kB activation in a HEK-293T cell line using a luminescence assay. [Related pubchem assays (depositor defined):AID435003, AID435022, AID465, AID489019, AID489029]; format: functional, cell-based; conditions: Homo sapiens
[17] = OV-90 cell viability loss – plate reader, dry powder, SA8, PAX8 inhibitor project, dose response (AID 743149); format: functional, cell-based
[18] = Luminescence-based dose response cell-based high throughput screening assay for cytotoxic compounds using the IEC-6 intestinal epithelial cell line. [Related pubchem assays: 1858 (Summary AID.), 1825 (Counterscreen.), 1907 (Confirmation screen.)]; format: functional
BJ [19] = assay: BJ-TERT-LT-ST fibroblast viability loss – cell-based, RAS-independent, luminescence, dose response (AID 1935); format: functional; conditions: Homo sapiens;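 also: BJ fibroblasts immortalized with TERT plus LT and ST oncogenes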
[20] = molecular target: Glucose-6-phosphate 1-dehydrogenase (Homo sapiens, UniProt P11413); assay: inhibition of Homo sapiens G6PD, dose series – biochemical, fluorescence, selectivity assay for P. falciparum G6PD inhibitor project, dose response (AID 504792); format: functional
Streptococcus = assay: GAS UMAA2166 growth inhibition – luminescence, BacTiterGlo, counter-screen for streptokinase expression inhibitor project, dose response (AID 1915); format: functional, organism-based;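 also: potency for reduction of bacterial viability or growth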
HEK293 [21] = assay: NOD2 signaling inhibitors in MDP-stimulated cells, cell-based, uHTS, luminescence (AID 2001); format: functional; conditions: Homo sapiens
HEK293 [22] = assay: cells; format: functional, cell-based; conditions: Homo sapiens; remark: listed apart in the source
Streptokinase A = molecular target: T1, Streptokinase A (Streptococcus pyogenes serotype M1, UniProt P10520); assay: viability-normalized secreted streptokinase activity reduction – plasminogen activation absorbance, OD405, dose response (AID 1914); format: functional, Streptococcus pyogenes M1 GAS;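 also: secreted streptokinase activity via plasminogen activation per viability signal from cell pellet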
T1 sequence (P10520 whole entry): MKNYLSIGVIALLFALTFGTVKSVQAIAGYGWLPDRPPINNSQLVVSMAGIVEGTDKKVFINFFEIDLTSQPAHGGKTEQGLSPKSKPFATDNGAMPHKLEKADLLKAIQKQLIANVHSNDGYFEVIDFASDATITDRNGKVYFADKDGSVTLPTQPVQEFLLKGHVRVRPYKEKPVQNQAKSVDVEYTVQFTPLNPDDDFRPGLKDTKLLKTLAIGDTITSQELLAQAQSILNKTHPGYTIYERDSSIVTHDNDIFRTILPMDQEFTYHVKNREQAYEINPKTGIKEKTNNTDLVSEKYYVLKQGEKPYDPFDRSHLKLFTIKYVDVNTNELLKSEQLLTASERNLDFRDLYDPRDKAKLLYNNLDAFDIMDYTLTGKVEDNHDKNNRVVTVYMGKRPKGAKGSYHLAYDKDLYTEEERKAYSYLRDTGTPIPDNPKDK

HEK293 [23] = assay: inhibition of NOD1-driven NF-kB reporter – cell-based, luminescence, uHTS, primary screen (AID 1578); format: functional; conditions: Homo sapiens
Vero = assay: mammalian cell viability reduction – secondary assay, cytotoxicity control for West Nile virus antiviral project, dose response (AID 1650); format: functional; conditions: Chlorocebus sabaeus
HEK293 [24] = assay: HEK293T cell viability loss, resazurin readout – resazurin fluorescence, cytotoxicity control for NF-kB activator project, SAR follow-up (AID 493251); format: functional, cell-based; conditions: Homo sapiens
BJ [25] = assay: cells; format: functional, cell-based; conditions: Homo sapiens
Beta-galactosidase = Beta-galactosidase (Escherichia coli, UniProt Q8VNN2); assay: PubChem AID 485352; format: functional
Chain of Beta-galactosidase (Q8VNN2 whole entry): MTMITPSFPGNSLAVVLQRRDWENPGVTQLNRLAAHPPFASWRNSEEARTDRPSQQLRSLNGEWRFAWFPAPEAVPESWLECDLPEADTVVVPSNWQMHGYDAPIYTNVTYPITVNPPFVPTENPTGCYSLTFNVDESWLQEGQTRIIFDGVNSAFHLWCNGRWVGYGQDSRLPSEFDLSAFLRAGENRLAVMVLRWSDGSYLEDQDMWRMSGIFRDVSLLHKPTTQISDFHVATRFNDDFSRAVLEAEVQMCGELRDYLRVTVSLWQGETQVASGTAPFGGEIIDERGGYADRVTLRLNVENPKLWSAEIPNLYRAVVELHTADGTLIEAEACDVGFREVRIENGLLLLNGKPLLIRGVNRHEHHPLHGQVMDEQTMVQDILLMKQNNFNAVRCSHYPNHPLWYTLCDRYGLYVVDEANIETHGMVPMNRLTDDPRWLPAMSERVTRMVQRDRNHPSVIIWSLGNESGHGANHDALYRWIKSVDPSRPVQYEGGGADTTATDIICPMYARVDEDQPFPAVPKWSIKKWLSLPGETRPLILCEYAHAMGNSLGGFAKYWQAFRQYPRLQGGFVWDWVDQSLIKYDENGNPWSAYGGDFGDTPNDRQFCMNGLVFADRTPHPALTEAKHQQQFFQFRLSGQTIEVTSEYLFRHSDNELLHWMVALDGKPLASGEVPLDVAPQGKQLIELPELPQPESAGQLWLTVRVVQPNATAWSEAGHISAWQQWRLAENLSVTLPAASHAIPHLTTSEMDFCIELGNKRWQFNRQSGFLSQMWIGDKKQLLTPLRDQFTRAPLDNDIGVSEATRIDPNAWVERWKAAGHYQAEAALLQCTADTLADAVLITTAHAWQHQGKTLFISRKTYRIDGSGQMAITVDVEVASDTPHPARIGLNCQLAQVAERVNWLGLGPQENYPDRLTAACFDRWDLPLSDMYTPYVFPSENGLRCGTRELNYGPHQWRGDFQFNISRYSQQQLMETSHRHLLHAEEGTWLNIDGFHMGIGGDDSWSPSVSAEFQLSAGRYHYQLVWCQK

Chain of Glucose-6-phosphate 1-dehydrogenase (P11413 whole entry): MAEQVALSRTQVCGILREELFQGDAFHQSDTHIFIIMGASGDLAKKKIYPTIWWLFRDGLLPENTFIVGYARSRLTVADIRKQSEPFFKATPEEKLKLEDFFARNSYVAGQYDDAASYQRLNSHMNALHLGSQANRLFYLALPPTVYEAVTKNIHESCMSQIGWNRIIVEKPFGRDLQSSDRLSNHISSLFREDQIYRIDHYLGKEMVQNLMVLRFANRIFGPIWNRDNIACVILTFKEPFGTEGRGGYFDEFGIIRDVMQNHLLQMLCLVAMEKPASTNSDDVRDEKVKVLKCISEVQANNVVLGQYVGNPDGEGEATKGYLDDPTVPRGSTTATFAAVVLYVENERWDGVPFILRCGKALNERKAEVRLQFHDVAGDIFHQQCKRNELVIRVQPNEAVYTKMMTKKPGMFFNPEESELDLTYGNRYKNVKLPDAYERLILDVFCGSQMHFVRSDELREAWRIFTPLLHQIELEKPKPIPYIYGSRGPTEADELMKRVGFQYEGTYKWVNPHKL
Chain of Paired box protein Pax-8 (Q06710 whole entry): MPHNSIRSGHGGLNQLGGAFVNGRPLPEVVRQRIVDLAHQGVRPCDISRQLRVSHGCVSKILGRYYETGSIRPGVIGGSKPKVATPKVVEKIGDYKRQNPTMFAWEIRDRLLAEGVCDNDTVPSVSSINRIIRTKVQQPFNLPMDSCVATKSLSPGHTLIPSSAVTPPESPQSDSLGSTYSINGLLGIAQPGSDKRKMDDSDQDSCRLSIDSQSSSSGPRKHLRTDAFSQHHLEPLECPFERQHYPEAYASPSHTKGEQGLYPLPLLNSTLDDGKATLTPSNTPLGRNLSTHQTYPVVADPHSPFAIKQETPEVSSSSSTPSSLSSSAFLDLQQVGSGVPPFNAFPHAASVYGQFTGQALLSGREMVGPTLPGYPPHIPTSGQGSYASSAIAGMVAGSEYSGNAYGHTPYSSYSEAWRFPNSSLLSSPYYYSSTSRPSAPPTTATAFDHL
Chain of Nucleotide-binding oligomerization domain-containing protein 2 (Q9HC29 whole entry, the tested form may be a part): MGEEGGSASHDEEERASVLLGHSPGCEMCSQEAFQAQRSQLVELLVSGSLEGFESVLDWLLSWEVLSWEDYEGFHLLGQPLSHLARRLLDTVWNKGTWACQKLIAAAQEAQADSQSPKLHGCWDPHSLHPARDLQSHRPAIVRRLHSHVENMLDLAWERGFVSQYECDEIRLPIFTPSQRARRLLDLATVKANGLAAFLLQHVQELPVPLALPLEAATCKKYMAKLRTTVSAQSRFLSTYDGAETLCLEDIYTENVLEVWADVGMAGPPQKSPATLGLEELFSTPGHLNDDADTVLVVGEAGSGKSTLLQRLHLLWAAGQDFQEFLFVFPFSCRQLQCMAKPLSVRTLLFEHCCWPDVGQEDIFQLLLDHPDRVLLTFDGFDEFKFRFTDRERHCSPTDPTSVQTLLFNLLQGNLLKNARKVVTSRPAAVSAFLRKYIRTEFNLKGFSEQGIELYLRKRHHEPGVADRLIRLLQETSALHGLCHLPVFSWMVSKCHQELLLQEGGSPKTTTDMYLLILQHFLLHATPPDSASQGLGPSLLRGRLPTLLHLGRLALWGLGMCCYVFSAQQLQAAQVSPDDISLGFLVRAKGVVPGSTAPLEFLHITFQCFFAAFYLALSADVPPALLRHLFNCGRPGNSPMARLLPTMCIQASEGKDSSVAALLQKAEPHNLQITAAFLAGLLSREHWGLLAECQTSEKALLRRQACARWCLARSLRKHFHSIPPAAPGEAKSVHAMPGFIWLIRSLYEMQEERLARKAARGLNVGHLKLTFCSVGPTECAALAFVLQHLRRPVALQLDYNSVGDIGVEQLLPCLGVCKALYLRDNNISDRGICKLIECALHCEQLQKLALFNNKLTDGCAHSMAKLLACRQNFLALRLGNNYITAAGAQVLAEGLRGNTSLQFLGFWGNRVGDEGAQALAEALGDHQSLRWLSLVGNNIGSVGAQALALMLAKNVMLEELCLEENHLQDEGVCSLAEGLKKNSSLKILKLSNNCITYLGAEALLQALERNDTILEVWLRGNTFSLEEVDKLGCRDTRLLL
Chain of Type-1 angiotensin II receptor (P30556 whole entry): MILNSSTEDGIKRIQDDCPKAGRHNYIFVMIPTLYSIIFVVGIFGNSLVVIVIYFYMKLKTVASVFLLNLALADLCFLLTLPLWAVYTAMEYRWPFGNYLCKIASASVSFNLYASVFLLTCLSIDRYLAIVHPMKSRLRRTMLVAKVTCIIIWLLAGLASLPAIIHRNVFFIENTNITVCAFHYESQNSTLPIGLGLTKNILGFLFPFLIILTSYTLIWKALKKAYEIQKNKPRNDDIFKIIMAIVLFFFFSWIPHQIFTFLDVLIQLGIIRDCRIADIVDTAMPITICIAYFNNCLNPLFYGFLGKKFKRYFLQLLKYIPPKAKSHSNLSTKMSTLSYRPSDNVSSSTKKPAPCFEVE

O=S(=O)(Nc1cccc2cccnc12)c1ccccc1
active: IC50 [1] 2.75 µM | AC50 (Paired box protein Pax-8) 6.46 µM | IC50 (HEK293 [2]) 11.7 µM | AC50 [3] 21.4 µM | AC50 [5] 20.7 µM | EC50 (BJ [6]) 28.1 µM | AC50 [7] 19.3 µM | AC50 [8] 38.9 µM | EC50 [9] 3.27 µM | EC50 [10] 34 µM | AC50 [11] 32.4 µM | IC50 (Jurkat) 0.89 µM | AC50 [12] 26.3 µM | EC50 (BJ [13]) 0.572 µM | AC50 [14] 33.2 µM | IC50 (HEK293 [15]) 2.74 µM | AC50 [17] 15.3 µM | IC50 [18] 2.08 µM | EC50 (Streptococcus) 12.3 µM | CC50 (Vero) 7.94 µM | EC50 (BJ [25]) 17.2 µM
> 150 µM (not active): EC50 (BJ [19]) | EC50 (Streptokinase A)
inactive: EC50 [4] > 20 µM | IC50 (HEK293 [16]) 44.8 µM | IC50 [20] 51.9 µM | IC50 (HEK293 [21]) 1.83 µM | IC50 (HEK293 [22]) > 20 µM | EC50 (HEK293 [23]) > 20 µM | IC50 (HEK293 [24]) > 80 µM | EC50 (Beta-galactosidase) > 40 µM
